Patent US8491897B2, “Treatment of neuropathic pain using anti-thrombospondin antibodies” (The Board of Trustees of the Leland Stanford Junior …, priority 2007, dated 2013)
“Also recorded” adds a separate entry of the source.

Tested on: RGCs
Experiment: Inhibition of TSP-, astrocyte/ACM- or Hevin-induced synapse formation in RGC cultures
Format: cell-based, rat
Protocol: RGCs were purified by sequential immunopanning to greater than 99.5% purity from P5 Sprague-Dawley rats (Simonsen Labs, Gilroy, Calif.), as previously described (Barres et. al. (1988) Neuron 9, 791). Approximately 30,000 RGCs were cultured per well in 24-well plates (Falcon) on glass (Assistant) or Aclar 22C (Allied Signal) coverslips coated with poly-D-lysine (10 μg/ml) followed by laminin (2 μg/ml). RGCs were cultured in 600 μl of serum-free medium, modified from Bottenstein and Sato (1979), containing Neurobasal (Gibco), bovine serum albumin, selenium, putrescine, triiodo-thyronine, transferrin, progesterone, pyruvate (1 mM), glutamine (2 mM), CNTF (10 ng/ml), BDNF (50 ng/ml), insulin (5 μg/ml), and forskolin (10 μM). Recombinant human BDNF and CNTF were generously provided by Regeneron Pharmaceuticals.
Purified human platelet TSP1 was from either Sigma or Haematologic Technologies with similar results. Recombinant TSP2 was purified from serum-free medium conditioned by baculovirus-infected insect cells expressing mouse TSP2. Since purified TSP1 is readily available, we used this as the source of TSP in our experiments unless otherwise stated TSPs were used at a concentration of 5 μg/ml unless otherwise specified. RCGs were cultured for 4 days to allow robust process outgrowth and then cultured with TSPs for an additional 6 days. All other reagents were obtained from Sigma.
For preparation of ACM, confluent cultures of astrocytes in 10 cm dishes were washed 3× in PBS and fed with 10 mls RGC medium (without CNTF, BDNF or forskolin). ACM was harvested after 4-6 days of conditioning, filtered through a 0.2 μm syringe filter and concentrated 10× through a 5 KD molecular weight cut-off centrifuge concentrator (Millipore), unless otherwise indicated. ACM was used at a final concentration of 5× unless otherwise indicated. RCGs were cultured for 4 days to allow robust process outgrowth and then cultured with ACM or an astrocyte-feeding layer for an additional 6 days.
For synapse quantification, cultures were fixed for 7 min in 4% paraformaldehyde (PFA), washed 3× in phosphate buffered saline (PBS) and blocked in 100 μL of blocking buffer (50% Antibody Buffer (0.5% bovine serum albumin, 0.5% Triton X-100, 30 mM NaPO4, 750 mM NaCl, 5% normal goat serum, and 0.4% NaN3, pH 7.4), 50% goat serum (NGS), 0.1% Triton-X) for 30 min. After blocking, cover slips were washed 3× in PBS and 100 μL of primary antibody solution was added to each cover slip, consisting of rabbit anti-synaptotagmin (cytosolic domain, Synaptic Systems) and mouse anti-PSD-95 (6G6-1C9 clone, Affinity Bio Reagents) diluted 1:500 in antibody buffer. Coverslips were incubated overnight at 4° C., washed 3× in PBS, and incubated with 100 μL of secondary antibody solution containing Alexa-594 conjugated goat anti-rabbit and Alexa-488 conjugated goat anti-mouse (Molecular Probes) diluted 1:1000 in antibody buffer. Following incubation for 2 h at room temperature, coverslips were washed five times in PBS and mounted in Vectashield mounting medium with DAPI (Vector Laboratories Inc) on glass slides (VWR Scientific). For presynaptic activity assay, rabbit synaptotagmin antiserum was generated by immunization with a peptide corresponding to the N-terminal luminal portion of synaptotagmin. This serum was added at 1:500 to live cultures and incubated for 6 hours. Cells were then washed 3× in DPSB, fixed and stained as above, except for the omission of synaptotagmin antibody from the primary antibody solution.
Mounted coverslips were imaged using Nikon Diaphot and Eclipse epifluorescence microscopes (Nikon). Healthy cells that were at least 2 cell diameters from their nearest neighbor were identified and selected at random by eye using DAPI fluorescence. 8-bit digital images of the fluorescence emission at both 594 nm and 488 nm were recorded for each selected cell using a cooled monochrome CCD camera and SPOT image capture software (Diagnostic Instruments, Inc). […]

NCC1(CC(=O)O)CCCCC1 [Gabapentin, 1-(aminomethyl)cyclohexaneacetic acid]
effect on SD2-induced synapse formation: completely inhibited synapse formation; also recorded: inhibited TSP induced synapse formation; also recorded: blocks TSPs synaptogenic effect; also recorded: blocks the synaptogenic activity of SD2 | effect on SD2-induced synapses: synapse formation was not affected; also recorded: does not decrease synapse numbers | effect on already formed synapses (synapse number): did not decreased the synapse number | effect on synapse formation induced by Hevin: does not inhibit the synapse formation; also recorded: did not affect | effect on synaptogenic effect of TSP2 EGF-like domains: diminished its synaptogenic effect | effect on TSP and astrocyte-induced synapse formation (32 μM): strongly inhibited both TSP and astrocyte-induced synapse formation | effect on synapse formation induced by TSP1 or TSP2 EGF-like domains (32 μM): blocked the synaptogenic effect; also recorded: reduces the number of synapses formed by RGCs down to background levels | effect on synaptogenic effect of astrocyte conditioned media (ACM) (32 μM): diminished the synaptogenic effect of both rat and mouse ACM; also recorded: able to block all of ACMs synaptogenic activity
